Results taken from US20020119146A1, “TREATMENT OF DIABETES” (priority 1994, published 2002).
Entries after “also recorded” stand apart in the source; their conditions may differ.

What was measured:
Type II diabetics = settings: cited from earlier work
humans and other mammals = settings: cited from earlier work
normal volunteers = experiment: Sustacal meal preceded by subcutaneous GLIP in normal volunteers (Example 4); format: in vivo, human
From the text: Results are shown in FIG. 4. *indicates statistically significant differences between treatments (p<0.05).

[1] = tested on: subjects with remission phase Type I diabetes; experiment: Sustacal meal with lower-dose GLIP infusion (Example 3); format: in vivo, human; settings: infusion 0.75 pmol/kg/min for 120 minutes after Sustacal meal, versus saline infusion; FIG. 3
Protocol: Four subjects with remission phase Type I diabetes were studied during infusion with 0.75 pm/kg/min-GLIP for 120 minutes after a Sustacal meal.
The test was conducted as described in Example 1 and blood glucose and C-peptice levels were measured. On a further test day, the subjects were studied during saline infusion after a similar Slistacal meal.

Type I diabetic subjects = experiment: Sustacal meal preceded by subcutaneous GLIP in Type I diabetics (Example 5); format: in vivo, human; settings: 100 μg GLIP subcutaneously prior to Sustacal meal
From the text: Type I diabetic subjects were studied.
The results are shown in FIG. 5. indicates statistically significant differences between treatments (p<0.05).

[2] = tested on: subjects with remission phase Type I diabetes; experiment: Sustacal meal with intravenous GLIP infusion (Example 1); format: in vivo, human
Protocol: 7 subjects with remission phase Type I diabetes were studied after ingestion of a standardised meal of Sustacal (Upjohn) (delivering […]). Subjects continued their normal insulin treatment programme on the day prior to the test and, on the day of the test, omitted their morning insulin injection and arrived fasting at 8:00 am. […] Infusion was continued for 120 minutes. Blood levels of glucose, C-peptide, gastrin, glucagon and HPP were monitored by standard radioimmunoassay methods in samples taken before and at intervals during the study, up to 180 minutes. On another test day, subjects were given the Sustacal meal alone and the same analytes were similarly monitored.

Type 1 diabetic subject = experiment: Subcutaneous GLIP along with insulin before Sustacal meal (Example 6)
Protocol: One Type 1 diabetic subject was given GLIP along with insulin and the effects on post-prandial glycaemia observed. The subject received 5 units of insulin and 50 μg GLIP as subcutaneous injections immediately prior to ingestion of a Sustacal meal as described in Example 1. Blood levels of GLIP were monitored by a standard radioimmunoassay method.

[3] = subcutaneous injection of 00 gg GLIP immediately before Sustacal meal

For “Glucagon-like peptide 1(7-36)amide [GLIP]”, the “effect between the peptide and oral hypoglycaemic agents” value (Type II diabetics) is given as “synergistic effect”, the gastric emptying (humans and other mammals) is given as “delay of gastric emptying” and the “delays in increase in blood levels of glucose, HPP, C-peptide and insulin” value (normal volunteers; experiment repeated with 50 Ag dose of GLIP) is given as “proportionally shorter”. The “delays in increase in blood levels of glucose, HPP, C-peptide and insulin” value (normal volunteers; experiment repeated with 200 Ag dose of GLIP) was “longer”, the “increase in blood levels of C-peptide” value (normal volunteers; [3]) was “delay in increase” and the “increase in blood levels of HPP” value (normal volunteers; [3]) was “delay in increase”. The “increase in blood levels of glucose” value (normal volunteers; [3]) was “delay in increase”, the “increase in blood levels of insulin” value (normal volunteers; [3]) was “delay in increase” and the “increase in blood glucose” value [1] was “increase in glucose was less than in the control experiment”. The “rise in C-peptide” value [1] was “rise in C-peptide was similar to the control experiment”, the “blood glucose levels compared to control (no GLIP)” value (Type I diabetic subjects; morning insulin omitted, FIG. 5 Panel A) was “lowering of blood glucose levels” and the “pancreatic polypeptide (HPP) levels” value (Type I diabetic subjects; FIG. 5 Panel D) was “delayed rise in pancreatic polypeptide (HPP) levels”. The “insulin secretion over control levels” value (Type I diabetic subjects; FIG. 5 Panels B and C) was “no enhancement of insulin secretion over control levels”, the “gastrin response / gastrin levels” value ([2]; IV infusion 1.2 pm/kg/min after Sustacal meal, FIG. 1 Panel E) was “normal ga.trin response; also recorded: not significantly affected” and the “blood glucose level after a meal” value ([2]; IV infusion 1.2 pm/kg/min for 120 minutes after Sustacal meal, FIG. 1 Panel A) was “excellent control of blood glucose level”. The “secretion of pancreatic polypeptide (PP) after Sustacal meal” value ([2]; IV infusion 1.2 pm/kg/min, FIG. 1 Panel C) was “this response was absent during GLIP infusion”, the “clearance of GLIP from the blood” value (Type 1 diabetic subject; 50 μg GLIP subcutaneously with 5 units insulin, radioimmunoassay, FIG. 6 Panel E) was “cleared from the blood in about two hours” and the “blood glucose after standard meal” value (Type 1 diabetic subject; 50 gg GLIP with 5 units insulin (half the usual dose) subcutaneously before Sustacal meal, one subject, FIG. 6 Panel A) was ≤ 8 mM.
